Results published in PMC9501633, “Synthesis, Characterisation and Mechanism of Action of Anticancer 3-Fluoroazetidin-2-ones” (Pharmaceuticals, 2022).

Key:
[1] = test system: MCF-7 human breast cancer cells; assay: AlamarBlue cell viability assay; format: cell-based; conditions: for viability at 1 µM / viability at 10 µM / IC50: Homo sapiens, MCF7, 72 h; for viability at 1 µM: MCF-7, 1 μM; for viability at 1 µM / viability at 10 µM: read-out: viable cells remaining; for viability at 10 µM: MCF-7, 10 μM; for IC50: MCF-7, 72 h
Procedure: The antiproliferative potential of the synthesised 3-fluoro β-lactams 26–35 and 3,3-difluoro β-lactams 36–45 was evaluated in MCF-7 human breast cancer cells using the AlamarBlue assay, with CA-4 as reference compound (Figure 3). […] The results for the preliminary in vitro antiproliferative screen for 3-fluoro β-lactam compounds (26–29), which contain different substituents at the para position in the B ring, are presented in Figure 3A.
Cells were seeded at a density of 5 × 10^3 cells/well (MCF-7 and MDA-MB-231) and 1 × 10^4 cells/well (HEK-293T) in 96-well plates (200 μL per well). After 24 h, cells were then treated with medium alone, with vehicle (1% ethanol (v/v)) or with CA-4 or β-lactam compounds at 1 μM and 10 μM concentrations. […] Cell proliferation for MCF-7 cells was analysed with the AlamarBlue assay (Invitrogen Corp.) as previously described by us. After 72 h, AlamarBlue (10% (v/v)) was added to each well, and plates were incubated for 3–5 h at 37 °C in the dark. Fluorescence results were obtained with a 96-well fluorimeter with excitation at 530 nm and emission at 590 nm with results recorded as percentage viability relative to vehicle control (100%). Dose–response curves were obtained and IC50 values (concentration of drug resulting in 50% reduction in cell survival) were calculated using Prism (GraphPad Software, Inc., La Jolla, CA, USA).
Figure 3 Preliminary cell viability data for 3-fluoro and 3,3-difluoro β-lactam compounds. (A) 3-Fluoro β-lactam compounds containing different para-substituent ring B 26–29; 3-fluoro β-lactam compounds containing different meta-substituent ring B 30, 32–35; (B) 3-difluoro β-lactam compounds containing different para-substituent ring B 36–39; 3-difluoro β-lactam compounds containing different meta-substituent ring B 40, 42–45 in MCF-7 breast cancer cells. Cell proliferation of MCF-7 cells was determined with an AlamarBlue assay (seeding density […] for 96-well plates). Compound concentrations of either 10 μM or 1 μM for 72 h were used to treat the cells with control wells containing vehicle ethanol (1% v/v) and CA-4 (10 μM and 1 μM). The mean value for three experiments is shown with the ± S.E.M. for three independent experiments.

SW-480 cells = assay: AlamarBlue cell viability assay; format: cell-based; conditions: SW-480, 10 μM, 72 h
Procedure: Compound # (Treatment Concentration µM) […]
different para-substituent ring B 26-29; 3-fluoro β-lactam compounds containing different meta-substituent ring B 30, 33-35; (B) 3,3-difluoro β-lactam compounds containing different para-substituent ring B 36-39; 3,3-difluoro β-lactam compounds containing different meta-substituent […]
ring B 40, 42-45 in SW-480 cancer cells.
Cell proliferation of MCF-7 cells was determined with an alamarBlue assay (seeding density […]
Compound concentrations of either 10 μM or 1 μM for 72 h were used to treat the cells with control wells containing vehicle ethanol (1%

[2] = Stability in phosphate buffers (HPLC); format: physicochemical
Procedure: (§1) The β-lactam ring is known to undergo hydrolysis/degradation depending on the substituent type on the ring. For example, degradation of monocyclic β-lactam antibiotic aztreonam increased with elevated humidity, temperature and acidic pH buffer. Ezetimibe, a monocyclic β-lactam drug used to reduce blood cholesterol, undergoes degradation and hydrolysis more rapidly in neutral and basic pH conditions than in acidic pH [71]. The stability of representative compounds 33 and 39 was also determined at pH 4, pH 7.4 (plasma) and pH 9 (intestine) by HPLC. […] The electron-withdrawing effect of the 3-fluoro substituent may result in decreasing stability of the β-lactam ring in response to acid hydrolysis.
(§2) The stability study for compounds 33 and 39 was performed using analytical HPLC (Symmetry column (C18, […], 4.6 × 150 mm), dual wavelength absorbance detector (Waters 2487), binary HPLC pump (Waters 1525) and autosampler (Waters 717 plus)) with mobile phase acetonitrile (70%)/water (30%), flow rate 1 mL/min over 15 min and detection at λ 254 nm. Stock solutions of compounds 33 and 39 (1 mg/mL in mobile phase) were used. Dilutions of 0.5 mg/mL, 0.25 mg/mL, 0.125 mg/mL, 0.0625 mg/mL, 0.03125 mg/mL, 0.015625 mg/mL and 0.0078 mg/mL were prepared for the calibration curve. (i) Stability of 33 and 39 in phosphate buffers: The phosphate buffers were prepared in accordance with the British Pharmacopoeia 2020 at pH values 4, 7.4 and 9. Stock solution, 300 µL (1 mg/mL ACN), was added to a vial containing buffer (9.7 mL), mixed and pre-heated to 37 °C. 1 mL of the solution was introduced into an HPLC vial. Samples (10 µL) were injected and analysed at time intervals of t = 0 min, 5 min, 30 min, 60 min and hourly for 24 h. The analysis was performed in triplicate. (ii) Thermal stability: Compounds 33 and 39 (1 mL stock solution) were each placed in a vial for 4 h at 60 °C on a heating block. The sample was then cooled, diluted with acetonitrile and analysed by HPLC. (iii) Photostability study: Compounds 33 and 39 (stock solution, 1 mL) were placed in a vial, exposed to UV light for 4 h and then analysed by HPLC. (iv) Stability in acidic conditions: HCl (0.1 M, 0.2 mL) was added to stock solutions (0.8 mL) of 33 and 39 in a vial. The vial was vortexed and retained at room temperature. A sample was neutralised with NaOH (0.1 M, 0.2 mL) each hour for 4 h and then analysed by HPLC. (v) Stability of 33 and 39 in basic (alkaline) conditions: NaOH (0.1 M, 0.2 mL) was added to stock solution (0.8 mL) in a vial. The vial was vortexed and retained at room temperature. A sample was neutralised with HCl (0.1 M, 0.2 mL) every hour for 4 h then analysed by HPLC. (vi) Stability of 33 and 39 in oxidising conditions: H2O2 (3%, 0.2 mL) was added to the stock solution (0.8 mL). The vial was vortexed to obtain a homogeneous mixture and retained at room temperature, and a sample was analysed by HPLC every hour for 4 h.

[3] = Stability under degradation conditions (HPLC); format: physicochemical
Procedure: as §1, §2

[4] = test system: purified bovine brain tubulin; assay: Tubulin polymerisation assay (turbidimetric, 340 nm); format: biochemical; conditions: paclitaxel 10 µM; 33 10 and 30 µM
Procedure: Tubulin polymerisation was investigated using a turbidimetric assay which determines the light scattering by microtubules (absorbance at 340 nm) that is proportional to the microtubule polymer concentration.
Tubulin polymerisation was monitored with purified bovine tubulin using the BK006 kit supplied by Cytoskeleton Inc. (Denver, CO, USA), carried out following the manufacturer’s instructions with the standard assay conditions. Purified (>99%) bovine brain tubulin (3 mg/mL) in a buffer containing PIPES (80 mM, pH 6.9), EGTA (0.5 mM), MgCl2 (2 mM), GTP (1 mM) and glycerol (10%) was incubated at 37 °C in the presence of either vehicle (2% (v/v) ddH2O) or paclitaxel (10 µM), CA-4 (10 μM) or 33 (10 and 30 µM). The effect on tubulin assembly was monitored turbidimetrically at 340 nm in a Spectramax 340 PC spectrophotometer (Molecular Devices, Sunnyvale, CA, USA), with the light scattered depending on the concentration of polymerised microtubules formed. The absorbance was measured at 30 s intervals for 60 min.
Figure 7 Effect of β-lactam compound 33 (10 and 30 µM) and paclitaxel (10 µM) on in vitro tubulin polymerisation. Purified bovine tubulin and GTP were mixed in a 96-well plate. Compounds were added and the reaction was started by warming the solution from 4 to 37 °C. Ethanol (1% v/v) was used as a vehicle control. The effect on tubulin assembly was monitored in a Spectramax 340PC spectrophotometer at 340 nm at 30 s intervals for 30 min at 37 °C. […] Each experiment was performed in duplicate.

MCF-7 cells = assay: Immunofluorescence confocal microscopy of the microtubule network; format: cell-based, human; conditions: MCF-7, 16 h; 33 0.1, 0.5 and 1.0 μM; paclitaxel 1.0 μM; CA-4 0.01 μM
Procedure: The tubulin-targeting effect of compound 33 on the microtubule network of MCF-7 cells was further evaluated by immunofluorescence studies to identify the cellular effects that are relevant to its mechanism of action by inhibiting the polymerisation of tubulin. […] Treatment of MCF-7 cells with compound 33 (0.1, 0.5 and 1.0 μM) induced cell rounding and distinct abnormalities of the spindle formation as well as a loss of the structured tubulin that impacts the microtubule network structure in a dose-dependent manner.
Confocal microscopy was used to determine the effects of novel compound 33 and standard drugs on the MCF-7 cytoskeleton according to the protocols we previously described. For the immunofluorescence study, MCF-7 cells were seeded at 1 × 10^5 cells/mL using eight chamber glass slides (BD Biosciences). The cells were treated with vehicle control (1% ethanol (v/v)), CA-4 (0.01 μM), paclitaxel (1 µM) and 33 (0.1 µM, 0.5 µM and 1 µM) for 16 h. The cells were gently washed in PBS, fixed with 4% paraformaldehyde in PBS (20 min) and permeabilised in 0.5% Triton X-100. After further washes in PBS (containing 0.1% Tween (PBST)), cells were blocked with 5% bovine serum albumin which was diluted with PBST. Cells were incubated with mouse monoclonal anti-α-tubulin–FITC antibody (clone DM1A) (Sigma) (1:100) at 20 °C for 2 h and then washed in PBST and incubated with Alexa Fluor 488 dye (1:500) for 1 h at 20 °C. Cells were washed in PBST and mounted in Ultra Cruz Mounting Media (Santa Cruz Biotechnology, Santa Cruz, CA, USA) containing 4,6-diamino-2-phenolindol dihydrochloride (DAPI). The images were captured by Leica SP8 confocal microscopy with Leica Application Suite X software. Experiments were performed on three independent occasions and images were collected on the same day using identical parameters.
Figure 8 Compound 33 acts as depolymeriser of the microtubule network of MCF-7 breast cancer cells. Cells were treated with vehicle control ([…]), CA-4 (0.01 μM), paclitaxel (1 μM) or compound 33 (0.1, 0.5 and 1 μM) for 16 h. […]

Compound `COc1ccc(C2C(F)C(=O)N2c2cc(OC)c(OC)c(OC)c2)cc1` (stereo not shown) [Compound 26, 3-Fluoro-4-(4-methoxyphenyl)-1-(3,4,5-trimethoxyphenyl)azetidin-2-one] has a viability at 1 µM ([1]; 72 h) of over 70%, a viability at 10 µM ([1]; 72 h) of 40% and an IC50 [1] of 312 nM. It also gave a cells remaining (SW-480 cells) of 58%.

For `CCOc1ccc(C2C(F)C(=O)N2c2cc(OC)c(OC)c(OC)c2)cc1` (stereo not shown) [Compound 27, 4-(4-Ethoxyphenyl)-3-fluoro-1-(3,4,5-trimethoxyphenyl)azetidin-2-one], the viability at 1 µM ([1]; 72 h) was over 70% and the viability at 10 µM ([1]; 72 h) was 46%.

With `COc1cc(N2C(=O)C(F)C2c2ccc(SC)cc2)cc(OC)c1OC` (stereo not shown) [Compound 28, 3-Fluoro-4-(4-(methylthio)phenyl)-1-(3,4,5-trimethoxyphenyl)azetidin-2-one] the viability at 1 µM ([1]; 72 h) was over 70% and the viability at 10 µM ([1]; 72 h) was 47%.

For `CCSc1ccc(C2C(F)C(=O)N2c2cc(OC)c(OC)c(OC)c2)cc1` (stereo not shown) [Compound 29, 4-(4-(Ethylthio)phenyl)-3-fluoro-1-(3,4,5-trimethoxyphenyl)azetidin-2-one], the cell viability ([1]; MCF-7, range over the two concentrations 1 and 10 μM, 72 h) was 68–90% and the cells remaining (SW-480 cells) was 60%.

In the case of `CCSc1ccc(C2N(c3cc(OC)c(OC)c(OC)c3)C(=O)C2(F)F)cc1` (stereo not shown) [Compound 39, 4-(4-(Ethylthio)phenyl)-3,3-difluoro-1-(3,4,5-trimethoxyphenyl)azetidin-2-one], the remaining at 24 h, 0.03 mg/mL ([2]; phosphate buffer pH 4, 37 °C) is reported as 39%, the remaining at 24 h, 0.03 mg/mL ([2]; phosphate buffer pH 7.4, 37 °C) is reported as 50% and the remaining at 24 h, 0.03 mg/mL ([2]; phosphate buffer pH 9, 37 °C) is reported as 19%. The remaining at 0.03 mg/mL ([2]; phosphate buffer, pH 11 (as printed in Table S7)) was 19%, the remaining at 4 h, 0.8 mg/mL ([3]; 0.1 M HCl added to stock solution, acidic (0.1 M HCl)) was 54% and the remaining at 4 h, 0.8 mg/mL ([3]; 0.1 M NaOH added to stock solution, alkaline (0.1M NaOH)) was 60%. The remaining at 4 h, 0.8 mg/mL ([3]; 3% H2O2 added to stock solution, oxidative (3% H2O2)) was 50%, the remaining at 4 h, 1 mg/mL ([3]; stock solution in acetonitrile/water under UV light, UV light) was 61% and the remaining at 4 h, 1 mg/mL ([3]; stock solution in acetonitrile/water, heated, heat (60 °C)) was 82%.

For `COc1ccc(C2N(c3cc(OC)c(OC)c(OC)c3)C(=O)C2(F)F)cc1O` (stereo not shown) [Compound 42, 3,3-Difluoro-4-(3-hydroxy-4-methoxyphenyl)-1-(3,4,5-trimethoxyphenyl)azetidin-2-one], the viability at 1 µM ([1]; 72 h) was 17%, the viability at 10 µM ([1]; 72 h) was 37% and the IC50 [1] was 321 nM. For the same compound, the cells remaining (SW-480 cells) was 56%.

With `CC(=O)O[C@H]1C(=O)[C@@]2(C)[C@H]([C@H](OC(=O)c3ccccc3)[C@]3(O)C[C@H](OC(=O)[C@H](O)[C@@H](NC(=O)c4ccccc4)c4ccccc4)C(C)=C1C3(C)C)[C@]1(OC(C)=O)CO[C@@H]1C[C@@H]2O` [Paclitaxel, reference compound] the “effect on tubulin polymerisation” value [4] was “stabilises the tubulin” and the “effect on the microtubule network” value (MCF-7 cells) was “significant stabilisation of microtubules”.
